This is an account of results in USRE47689E1, “Compounds for treating spinal muscular atrophy” (PTC Therapeutics, Inc., priority 2011, dated 2019).

Where two headings read alike, the source gives them in different places.

The test system of data set [1] is Smn protein. The experiment in a line: Smn protein assay in cultured cells (SMN HTRF). In kind it is cell-based, human. The note with it: for EC1.5x (concentration giving 1.5-fold Smn protein increase): read-out: EC1.5x for Smn protein expression. The gist of the method: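 Lysates in RIPA with protease inhibitors are incubated overnight at room temperature with HTRF anti-SMN antibodies. EC1.5x is derived from fold increase in ΔF over vehicle.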
On the technique in general: TR-FRET usually uses a lanthanide donor and a delayed reading to cut background.

In data set [2] the test system is SMN2 minigene (full length SMN2 minigene mRNA containing SMN2 exon 7). The data set can be described thus: SMN2 minigene mRNA splicing RT-qPCR assay in cultured cells. In kind it is cell-based, human. The following applies: Homo sapiens, HEK293-H, read-out: EC1.5x for production of full length SMN2 mRNA. A digest of the protocol:
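HEK293H cells stably carrying the SMN2-A minigene treated 24 h at 37° C with compound (DMSO, 200× stock), then lysed. Multiplex RT-qPCR (SMN primers 0.4 μM final; 40 cycles) measures full-length exon 7-containing minigene mRNA, normalized to GAPDH and to vehicle; EC1.5x derived and binned by stars.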

The mark [3] stands for this setting: SMA patient fibroblast cells, 48 hours, 7-point concentration data, fold increase relative to vehicle control (SMN HTRF).
Where [4] appears, read: HEK293H cells stably transfected with SMN2-A minigene, 24 hours, 7-point concentration curve, 1.5-fold relative to vehicle-treated cells.
The mark [5] stands for this setting: SMA Type 1 patient fibroblast cells (GM03813), 48 hours, 7-point concentration curve, SMN HTRF, concentration producing 1.5 times Smn protein vs DMSO vehicle control.

Take `Cc1cnc2nc(-c3cc4ccc(N5CCN(C)CC5)cc4oc3=O)cn2c1` [Compound 242, 3-(6-methylimidazo[1,2-a]pyrimidin-2-yl)-7-(4-methylpiperazin-1-yl)-2H-chromen-2-one]: the melting point was above 310 °C. The “maximum fold (Fold) increase of Smn protein” value (shortened to “maximum fold (Fold) increase”) in data set [1] (setting [3]) was “*** (fold increase between >1.35 and ≤1.5)”. In addition, in data set [2] (setting [4]), the EC (1.5-fold) was 0.3 to 1 µM.

`Cc1cn2cc(-c3cc4ccc(N5CCN(C)CC5)cc4oc3=O)nc2s1` [Compound 97, 3-(2-methylimidazo[2,1-b][1,3]thiazol-6-yl)-7-(4-methylpiperazin-1-yl)-2H-chromen-2-one] showed a melting point above 300 °C. Moreover, in data set [1] (setting [5]), the EC1.5x (concentration giving 1.5-fold Smn protein increase) is 3000 to 10000 nM. Moreover, the “maximum fold (Fold) increase” value in data set [1] (setting [3]) is “*** (fold increase between >1.35 and ≤1.5)”. In addition, the EC (1.5-fold) in data set [2] (setting [4]) fell in the range of 1 to 3 µM.

`C[C@@H]1CN(c2ccc3cc(-c4cc5ccccc5o4)c(=O)oc3c2)C[C@H](C)N1` [Compound 604, 3-(1-benzofuran-2-yl)-7-[(3R,5S)-3,5-dimethylpiperazin-1-yl]-2H-chromen-2-one]: the melting point was 191 to 193 °C. Besides, the “maximum fold (Fold) increase” value in data set [1] (setting [3]) is reported as “* (maximum fold increase of ≤1.2)”. The EC (1.5-fold) in data set [2] (setting [4]) is 0.3 to 1 µM.

Regarding `Cc1cn2cc(-c3cc4ccc(CN(C)C)cc4oc3=O)nc2c(C)n1` [Cpd 846, 7-[(dimethylamino)methyl]-3-(6,8-dimethylimidazo[1,2-a]pyrazin-2-yl)-2H-chromen-2-one], the melting point is 192 to 196 °C. The EC1.5x (concentration giving 1.5-fold Smn protein increase) in data set [1] (setting [5]) fell in the range of 300 to 1000 nM. Further, the “maximum fold (Fold) increase” value in data set [1] (setting [3]) is “***** (fold increase >1.65)”. The EC (1.5-fold) in data set [2] (setting [4]) lay in the range of 0.1 to 0.3 µM.

`COc1cccn2cc(-c3cc4ccc(N5CCCN(C)CC5)cc4oc3=O)nc12` [Compound 419, 3-(8-methoxyimidazo[1,2-a]pyridin-2-yl)-7-(4-methyl-1,4-diazepan-1-yl)-2H-chromen-2-one] showed a melting point of 212 to 215 °C. Moreover, in data set [1] (setting [3]), the “maximum fold (Fold) increase” value was “** (fold increase between >1.2 and ≤1.35)”. Moreover, in data set [2] (setting [4]), the EC (1.5-fold) is 0.3 to 1 µM.

Take `CN1CCN(c2ccc3cc(-c4nc(C(F)(F)F)cs4)c(=O)oc3c2)CC1.O=C(O)C(F)(F)F` [Compound 53, 7-(4-methylpiperazin-1-yl)-3-[4-(trifluoromethyl)-1,3-thiazol-2-yl]-2H-chromen-2-one trifluoroacetate]: the melting point lay in the range of 260 to 270 °C. The “maximum fold (Fold) increase” value in data set [1] (setting [3]) was “** (fold increase between >1.2 and ≤1.35)”. In addition, in data set [2] (setting [4]), the EC (1.5-fold) fell in the range of 3 to 30 µM.

On to `Cc1cn2cc(-c3cc4ccc(N5CCC(NC(C)CO)CC5)cc4oc3=O)nc2c(C)n1` (centres unmarked) [Compound 925, 3-(6,8-dimethylimidazo[1,2-a]pyrazin-2-yl)-7-{4-[(1-hydroxypropan-2-yl)amino]piperidin-1-yl}-2H-chromen-2-one], for which the melting point lay in the range of 185 to 189 °C. The EC1.5x (concentration giving 1.5-fold Smn protein increase) in data set [1] (setting [5]) is 1000 to 3000 nM. The “maximum fold (Fold) increase” value in data set [1] (setting [3]) is “*** (fold increase between >1.35 and ≤1.5)”. Also, the EC (1.5-fold) in data set [2] (setting [4]) was below 0.1 µM.

`Cc1cn2cc(-c3cc4ccc(CCN5CCC[C@@H]5CO)cc4oc3=O)nc2c(C)n1` [Compound 874, 3-(6,8-dimethylimidazo[1,2-a]pyrazin-2-yl)-7-{2-[(2R)-2-(hydroxymethyl)pyrrolidin-1-yl]ethyl}-2H-chromen-2-one] registered a melting point of 166 to 171 °C. Moreover, in data set [1] (setting [5]), the EC1.5x (concentration giving 1.5-fold Smn protein increase) was below 300 nM. Moreover, the “maximum fold (Fold) increase” value in data set [1] (setting [3]) is “***** (fold increase >1.65)”. Also, the EC (1.5-fold) in data set [2] (setting [4]) was below 0.1 µM.

The compound `Cc1ccc2nc(-c3cc4ccc(N5CC6CCCNC6C5)cc4oc3=O)cn2c1` (centres unmarked) [Compound 255, 3-(6-methylimidazo[1,2-a]pyridin-2-yl)-7-(octahydro-6H-pyrrolo[3,4-b]pyridin-6-yl)-2H-chromen-2-one] returned a melting point of 220 to 230 °C. For the same compound, in data set [1] (setting [3]), the “maximum fold (Fold) increase” value is “* (maximum fold increase of ≤1.2)”. For the same compound, the EC (1.5-fold) in data set [2] (setting [4]) was 3 to 30 µM.

As for `Cc1ccc2cc(-c3cc4ccc(N5CCNCC5)cc4oc3=O)cn2n1` [Cpd 641, 3-(2-methylpyrrolo[1,2-b]pyridazin-6-yl)-7-(piperazin-1-yl)-2H-chromen-2-one], the melting point was 213 to 216 °C. Further, the “maximum fold (Fold) increase” value in data set [1] was “* (key: *: maximum fold increase of ≤1.2; **: fold increase between >1.2 and ≤1.35; ***: fold increase between >1.35 and ≤1.5; ****: fold increase between >1.5 and ≤1.65; *****: fold increase >1.65)”. Further, the EC (1.5-fold) in data set [2] (24 h) is 0.3 to 1 µM.

`Cc1csc2nc(-c3cc4ccc(N5CCCN(C)CC5)cc4oc3=O)cn12` [Compound 179, 7-(4-methyl-1,4-diazepan-1-yl)-3-(3-methylimidazo[2,1-b][1,3]thiazol-6-yl)-2H-chromen-2-one] gave a melting point of 182 to 185 °C. Besides, the “maximum fold (Fold) increase” value in data set [1] (setting [3]) is “*** (fold increase between >1.35 and ≤1.5)”. For the same compound, the EC (1.5-fold) in data set [2] (setting [4]) lay within 1 to 3 µM.

On to `CSc1cccc(-c2cc3ccc(N4CCNCC4)cc3oc2=O)n1` [Cpd 445, 3-[6-(methylsulfanyl)pyridin-2-yl]-7-(piperazin-1-yl)-2H-chromen-2-one], for which the melting point fell in the range of 180 to 183 °C. For the same compound, the “maximum fold (Fold) increase” value in data set [1] (setting [3]) is on record as “* (maximum fold increase of ≤1.2)”. The EC (1.5-fold) in data set [2] (setting [4]) was 3 to 30 µM.

On to `O=c1oc2cc(N3CCNCC3)cc(F)c2cc1-c1ccccn1` [Compound 161, 5-fluoro-7-(piperazin-1-yl)-3-(pyridin-2-yl)-2H-chromen-2-one], for which the melting point is 221 to 225 °C. In data set [1], the “maximum fold (Fold) increase” value is “*** (key: *: maximum fold increase of ≤1.2; **: fold increase between >1.2 and ≤1.35; ***: fold increase between >1.35 and ≤1.5; ****: fold increase between >1.5 and ≤1.65; *****: fold increase >1.65)”; the EC1.5x (concentration giving 1.5-fold Smn protein increase) was in the range of 3000 to 10000 nM. For the same compound, in data set [2] (24 h), the EC (1.5-fold) lay within 1 to 3 µM.

In turn, `Cc1nn2cc(-c3cc4ccc(N5CCN(C)CC5)cc4oc3=O)nc2s1` [Compound 442, 3-(2-methylimidazo[2,1-b][1,3,4]thiadiazol-6-yl)-7-(4-methylpiperazin-1-yl)-2H-chromen-2-one] showed a melting point of 233 to 236 °C. Also, in data set [1] (setting [3]), the “maximum fold (Fold) increase” value was “** (fold increase between >1.2 and ≤1.35)”. Further, in data set [2] (setting [4]), the EC (1.5-fold) lay within 3 to 30 µM.

Consider `Cc1cn2cc(-c3cc4ccc(OCCN5CCC(O)CC5)cc4oc3=O)nc2c(C)n1` [Compound 957, 3-(6,8-dimethylimidazo[1,2-a]pyrazin-2-yl)-7-[2-(4-hydroxypiperidin-1-yl)ethoxy]-2H-chromen-2-one], for which the melting point fell in the range of 187 to 190 °C. Also, the EC1.5x (concentration giving 1.5-fold Smn protein increase) in data set [1] (setting [5]) lay in the range of 300 to 1000 nM. The “maximum fold (Fold) increase” value in data set [1] (setting [3]) is “**** (fold increase between >1.5 and ≤1.65)”. Also, the EC (1.5-fold) in data set [2] (setting [4]) was below 0.1 µM.

With `CN1CCN(c2ccc3cc(-c4cn5cc(C6CC6)cc(F)c5n4)c(=O)oc3c2)CC1` [Compound 504, 3-(6-cyclopropyl-8-fluoroimidazo[1,2-a]pyridin-2-yl)-7-(4-methylpiperazin-1-yl)-2H-chromen-2-one], the melting point was in the range of 277 to 287 °C. Further, the “maximum fold (Fold) increase” value in data set [1] (setting [3]) is “* (maximum fold increase of ≤1.2)”. Also, the EC (1.5-fold) in data set [2] (setting [4]) lay in the range of 1 to 3 µM.

Regarding `O=c1oc2cc(N3CCNCC3)cc(F)c2cc1-c1nc2c(C(F)(F)F)cccc2o1` [Compound 254, 5-fluoro-7-(piperazin-1-yl)-3-[4-(trifluoromethyl)-1,3-benzoxazol-2-yl]-2H-chromen-2-one], the melting point lay within 249 to 253 °C. The “maximum fold (Fold) increase” value in data set [1] (setting [3]) is “* (maximum fold increase of ≤1.2)”. In addition, the EC (1.5-fold) in data set [2] (setting [4]) lay within 0.3 to 1 µM.

For `C[C@@H]1CN(c2ccc3cc(-c4cn5cccc(Cl)c5n4)c(=O)oc3c2)C[C@H](C)N1` [Compound 120, 3-(8-chloroimidazo[1,2-a]pyridin-2-yl)-7-[(3R,5S)-3,5-dimethylpiperazin-1-yl]-2H-chromen-2-one], the melting point was 286 °C (dec.). Further, the EC1.5x (concentration giving 1.5-fold Smn protein increase) in data set [1] (setting [5]) was below 300 nM. Also, the “maximum fold (Fold) increase” value in data set [1] (setting [3]) was “**** (fold increase between >1.5 and ≤1.65)”. The EC (1.5-fold) in data set [2] (setting [4]) was below 0.1 µM.

With `Cc1ccn2cc(-c3cc4c(F)cc(N5CCNCC5)cc4oc3=O)nc2c1` [Compound 424, 5-fluoro-3-(7-methylimidazo[1,2-a]pyridin-2-yl)-7-(piperazin-1-yl)-2H-chromen-2-one], the melting point is 268 to 278 °C. For the same compound, the EC1.5x (concentration giving 1.5-fold Smn protein increase) in data set [1] (setting [5]) was below 300 nM. In addition, the “maximum fold (Fold) increase” value in data set [1] (setting [3]) is “*** (fold increase between >1.35 and ≤1.5)”. Moreover, the EC (1.5-fold) in data set [2] (setting [4]) lay in the range of 0.1 to 0.3 µM.

`O=c1oc2cc(N3CCN4CCC[C@@H]4C3)ccc2cc1-c1cn2cccc(F)c2n1` [Compound 531, 3-(8-fluoroimidazo[1,2-a]pyridin-2-yl)-7-[(8aR)-hexahydropyrrolo[1,2-a]pyrazin-2(1H)-yl]-2H-chromen-2-one] displayed a melting point of 238 to 241 °C. Besides, the “maximum fold (Fold) increase” value in data set [1] (setting [3]) is “** (fold increase between >1.2 and ≤1.35)”. In addition, the EC (1.5-fold) in data set [2] (setting [4]) was 0.3 to 1 µM.

Broadly, the melting point is the temperature of the solid-liquid transition.
